Data published in US5440016A, “Peptides of the formula (KFmoc) ZZZ and their uses” (priority 1993, dated 1995).
Square brackets hold non-standard residues; d marks the D form. Peptide text beside a SMILES is read from it. * marks the point of attachment. Phe(4-NO2) = N[C@@H](Cc1ccc([N+](=O)[O-])cc1)C(=O)O; Met(O2) = CS(=O)(=O)CC[C@H](N)C(=O)O; Fmoc = O=C(OCC1c2ccccc2-c2ccccc21)*; Nle = CCCC[C@H](N)C(=O)O; Thz = O=C(O)[C@@H]1CSCN1; Nva = CCC[C@H](N)C(=O)O; Abu = CC[C@H](N)C(=O)O; Aib = CC(C)(N)C(=O)O

Tested on: Human red blood cells (RBCs)
Assay: Hemolytic activity
Type: cell-based
Conditions: Tables 18-21
Description: Each assay was carried out in 96-well culture tissue plates. Four wells per plate contain 125 μl of a non-peptide positive control (1% Triton in de-ionized water), and four wells per plate contain 125 μl of a control blank, phosphate buffered saline (PBS). The hemolytic peptide melittin was used as comparative control. The controls served to detect possible contamination and to calculate the percent hemolysis of each peptide. Human red blood cells (RBCs) were washed with PBS and centrifuged to separate them from the serum. The cells were then resuspended in PBS to a final suspension of 0.5% RBC. 125 μl of this suspension was added to the peptides and controls solution. The release of hemoglobin resulting from the cell lysis was determined by measuring the OD at 414 nm of 100 μl of the supernatant.

Row | SMILES | HD50 (concentration necessary to lyse 50% of the cells) [µg/mL]
1 | CS(=O)(=O)CC[C@H](NC(=O)[C@H](CCCCN)NC(=O)[C@H](Cc1c[nH]c2ccccc12)NC(=O)[C@H](CCCCN)NC(=O)OCC1c2ccccc2-c2ccccc21)C(N)=O [(KFmoc)WK(MetO2)-NH2] (Fmoc-KWK[Met(O2)]-NH2) | 437
2 | NCCCC[C@H](NC(=O)OCC1c2ccccc2-c2ccccc21)C(=O)N[C@@H](Cc1c[nH]c2ccccc12)C(=O)N[C@@H](CCCCN)C(=O)N[C@@H](Cc1ccc([N+](=O)[O-])cc1)C(N)=O [(KFmoc)WK(NO2 F)-NH2] (Fmoc-KWK[Phe(4-NO2)]-NH2) | 67
3 | CCCC[C@H](NC(=O)[C@H](CCCCN)NC(=O)[C@H](Cc1c[nH]c2ccccc12)NC(=O)[C@H](CCCCN)NC(=O)OCC1c2ccccc2-c2ccccc21)C(N)=O [(KFmoc)WK(Nle)-NH2] (Fmoc-KWK[Nle]-NH2) | 91
4 | CCC[C@H](NC(=O)[C@H](CCCCN)NC(=O)[C@H](Cc1c[nH]c2ccccc12)NC(=O)[C@H](CCCCN)NC(=O)OCC1c2ccccc2-c2ccccc21)C(N)=O [(KFmoc)WK(Nve)-NH2] (Fmoc-KWK[Nva]-NH2) | 98
5 | NCCCC[C@H](NC(=O)OCC1c2ccccc2-c2ccccc21)C(=O)N[C@@H](Cc1c[nH]c2ccccc12)C(=O)N[C@@H](CCCCN)C(=O)N1CSC[C@H]1C(N)=O [(KFmoc)WK(Thiopro)-NH2] (Fmoc-KWK[Thz]-NH2) | 108
6 | CC[C@H](NC(=O)[C@H](CCCCN)NC(=O)[C@H](Cc1c[nH]c2ccccc12)NC(=O)[C@H](CCCCN)NC(=O)OCC1c2ccccc2-c2ccccc21)C(N)=O [(KFmoc)WK(aABA)-NH2] (Fmoc-KWK[Abu]-NH2) | 449
7 | CC(C)(NC(=O)[C@H](CCCCN)NC(=O)[C@H](Cc1c[nH]c2ccccc12)NC(=O)[C@H](CCCCN)NC(=O)OCC1c2ccccc2-c2ccccc21)C(N)=O [(KFmoc)WK(aAIB)-NH2] (Fmoc-KWK[Aib]-NH2) | 447
8 | C[C@H](NC(=O)[C@H](CCCCN)NC(=O)[C@H](Cc1c[nH]c2ccccc12)NC(=O)[C@H](CCCCN)NC(=O)OCC1c2ccccc2-c2ccccc21)C(N)=O [(KFmoc)WKA-NH2] (Fmoc-KWKA-NH2) | 378
9 | NCCCC[C@H](NC(=O)OCC1c2ccccc2-c2ccccc21)C(=O)N[C@@H](Cc1c[nH]c2ccccc12)C(=O)N[C@@H](CCCCN)C(=O)N[C@@H](CS)C(N)=O [(KFmoc)WKC-NH2] (Fmoc-KWKC-NH2) | 43
10 | NCCCC[C@H](NC(=O)OCC1c2ccccc2-c2ccccc21)C(=O)N[C@@H](Cc1c[nH]c2ccccc12)C(=O)N[C@@H](CCCCN)C(=O)N[C@@H](Cc1ccccc1)C(N)=O [(KFmoc)WKF-NH2] (Fmoc-KWKF-NH2) | 105
11 | NCCCC[C@H](NC(=O)OCC1c2ccccc2-c2ccccc21)C(=O)N[C@@H](Cc1c[nH]c2ccccc12)C(=O)N[C@@H](CCCCN)C(=O)NCC(N)=O [(KFmoc)WKG-NH2] (Fmoc-KWKG-NH2) | 449
12 | NCCCC[C@H](NC(=O)OCC1c2ccccc2-c2ccccc21)C(=O)N[C@@H](Cc1c[nH]c2ccccc12)C(=O)N[C@@H](CCCCN)C(=O)N[C@@H](Cc1c[nH]cn1)C(N)=O [(KFmoc)WKH-NH2] (Fmoc-KWKH-NH2) | 312
13 | CC[C@H](C)[C@H](NC(=O)[C@H](CCCCN)NC(=O)[C@H](Cc1c[nH]c2ccccc12)NC(=O)[C@H](CCCCN)NC(=O)OCC1c2ccccc2-c2ccccc21)C(N)=O [(KFmoc)WKI-NH2] (Fmoc-KWKI-NH2) | 141
14 | NCCCC[C@H](NC(=O)[C@H](CCCCN)NC(=O)[C@H](Cc1c[nH]c2ccccc12)NC(=O)[C@H](CCCCN)NC(=O)OCC1c2ccccc2-c2ccccc21)C(N)=O [(KFmoc)WKK-NH2] (Fmoc-KWKK-NH2) | 469
